Data set [1] concerns hiPSC-derived 3D neurospheres. Briefly: cells. Type of data set: cell-based, human. To be noted: for EC10 / EC25 / EC50: Homo sapiens, 72 h. As to the method: After thawing, NSCs (generated as detailed above) were cultured on POL/L (0.002%/1 µg/cm^2) coated plates (50,000 cells/cm^2). When reached 100% confluence NSCs were propagated with Accutase treatment and single-cell suspension was plated onto a low-adherent 96-well plate with 10,000 cells/well in NMM medium. […] Samples were collected at Day 0 (D0), Day 2 (D2), and weekly intervals from the end of the 1st week (D7) until the end of the 6th week (D14, D21, D28, D35, and D42).
Eleven well-known compounds were tested in 7 different concentrations to generate concentration-response curves. The tested compounds with the used concentrations are detailed in Table S3. […] In each assay plate, 4 technical replicates were applied from each sample and 3 biological replicate assays were run (n = 3). The 3D cell cultures were exposed to the toxicants for 72 h (exposure schemes are detailed in Figure 5A or Figure 6A or Figure 7A). Vehicle control was used as a regular medium supplemented with 0.1% DMSO.
ATP viability assay was performed with CellTiter-Glo® 3D Cell Viability Assay, according to the manufacturer’s protocol (Promega). Neurospheres were lysed with 100 μL CellTiter-Glo® 3D Reagent for 60 min at RT. Luminescence signal was recorded with a Thermo VarioScan Flash (Thermo Fisher Scientific) plate reader.
All results were analyzed using Prism 5 (GraphPad Software, La Jolla, CA, USA) and handled in Microsoft Office 2010 (Microsoft, Redmond, WA, USA) software. For normalization of the concentration response, the average values of positive control were used as 0% and the average of vehicle control served as 100%. Four parameter curve fitting methods were used to determine EC10 and EC50 values, where the data on the graphs represent the average of three biological replicates. The “n” value corresponds to the number of biological replicates for each tested concentration. Analysis of data is presented as the mean ± SEM. Significance of data was determined with paired T test for RT-qPCR (* p < 0.01) and with One-way ANOVA for concentration response (* p < 0.05; ** p < 0.01).

In data set [2] the test system is LUHMES cells. To be noted: cited from earlier work.
Data set [3] has as its system LUHMES cells. To be noted: LUHMES cells exposed; literature value, reference not given; cited from earlier work.
Data set [4] deals with hiPSC-derived 3D neurospheres. The data set can be described thus: TUNEL apoptosis assay on cryosectioned 3D neurospheres. Type of data set: cell-based, human. To be noted: 0.5 µM for 72 h; average, in each stage (D21, D28, D42).
Description: Embedding and cryosectioning of 3D samples were performed as above. To detect apoptotic activity, the DeadEnd™ Colorimetric TUNEL System (Promega) was used on the middle cryosections (highest diameter) of the spheroids, following the instructions of the manufacturer. In brief, apoptosis was detected by immersing the slides in PBS for 5 min (at RT), adding 20 μg/mL Proteinase K solution and incubating for 10–30 min (at RT). After 5–10 min treatment in Equilibration buffer, recombinant terminal deoxynucleotidyl transferase (rTdT) was added to the reaction mixture. Next, the sections were incubated for 60 min at 37 °C inside of a humidified chamber to allow the end-labelling reaction to occur. The reaction was terminated by immersing the slides in saline-sodium citrate for 15 min (RT). Endogenous peroxidases were blocked by immersing the slides in 0.3% hydrogen peroxide in PBS for 3–5 min (RT). Streptavidin-HRP was added to slides, incubated for 30 min (RT), stained with diaminobenzidine (DAB) solution for 5 min until a light brown background appeared. For hematoxylin–eosin (HE) staining Mayer’s Hematoxylin solution was used for 3 min. […] Five Ctrl and five ROT-treated spheroids were randomly selected, and middle sections were analyzed from each differentiation stage (D21, D28, and D42) samples in three experiments (n = 3).
Data set [5] relates to in vitro multicellular cytotoxicity. The note with it: multicellular cytotoxicity "comptox" data; ref EPA's Chemical dashboard (https://comptox.epa.gov/dashboard); cited from earlier work.
Another data set has as its system XBP1(S). Briefly: XBP1 assay of endoplasmic reticulum stress. The class given is cell-based, human. The note with it: listed as ROT. As to the method: Upon accumulation of unfolded proteins in the endoplasmic reticulum (ER), a 26-nucleotide fragment from the X-box binding protein 1 mRNA (XBP1(U)) is removed with a special splicing mechanism. This shorter mRNA (XBP1(S)) is a frequently used marker of ER-stress. To study the expression of XBP1(S), previously described primers and our own primers were used (Table S2). As a positive control, cells were treated with 5 µM and 10 µM Tunicamycin to induce ER-stress. RT-PCR reactions were performed and analyzed as above, using Phusion Hot Start II High-Fidelity DNA Polymerase and 20 ng of the cDNA samples.

A further data set relates to humans. To be noted: ref PubChem database (https://pubchem.ncbi.nlm.nih.gov/); cited from earlier work.

SMILES strings stand for the structures. Where two headings read alike, the source gives them in different places.

Consider `CCCC(CCC)C(=O)O` [Valproic acid, 2-Propylpentanoic acid], for which the “EC50 (cell viability)” value in data set [1] (D21 3D neurospheres, 72 h exposure) is above 2.6 log µM. Besides, in data set [1] (D21 stage, 72 h exposure, investigated concentration range), the “Effect on viability of 3D neurospheres (in words)” value is on record as “minimal effect on the viability”. Also, the EC10 (usually the point of the concentration-response curve where the effect stands at 10%) in data set [1] (D21 3D neurospheres, 72 h exposure, read-out: EC10 (cell viability) (converted)) was above 398000 nM; in data set [1] (D28 3D neurospheres, 72 h exposure, read-out: EC10 (cell viability) (converted)), above 398000 nM; in data set [1] (D42 3D neurospheres, 72 h exposure, read-out: EC10 (cell viability) (converted)) it was above 398000 nM. Also, the EC25 (commonly the concentration needed for an effect of 25%) is above 398000 nM in data set [1] (D21 3D neurospheres, 72 h exposure, read-out: EC25 (cell viability) (converted)); above 398000 nM in data set [1] (D28 3D neurospheres, 72 h exposure, read-out: EC25 (cell viability) (converted)); above 398000 nM in data set [1] (D42 3D neurospheres, 72 h exposure, read-out: EC25 (cell viability) (converted)). Further, the EC50 (commonly the concentration that produces a half-maximal response) is above 398000 nM in data set [1] (D21 3D neurospheres, 72 h exposure, read-out: EC50 (cell viability) (converted)); above 398000 nM in data set [1] (D28 3D neurospheres, 72 h exposure, read-out: EC50 (cell viability) (converted)); above 398000 nM in data set [1] (D42 3D neurospheres, 72 h exposure, read-out: EC50 (cell viability) (converted)); above 100000 nM in the data set with LUHMES cells [3]. Moreover, the “Effect on cell viability (in words)” value in data set [1] (investigated concentration range, D21, D28, D42 neurospheres) is reported as “no detectable impact”. Besides, the “Neurite outgrowth of LUHMES cells (in words)” value with LUHMES cells [2] is on record as “significant inhibition of neurite outgrowth”.

With `C=C(C)[C@H]1Cc2c(ccc3c2O[C@@H]2COc4cc(OC)c(OC)cc4[C@@H]2C3=O)O1` [Rotenone], the EC10 in data set [1] (read-out: EC10 (cell viability), D21 3D neurospheres, 72 h exposure) was 12.9 nM; in data set [1] (read-out: EC10 (cell viability), D28 3D neurospheres, 72 h exposure), 6.46 nM; in data set [1] (read-out: EC10 (cell viability), D42 3D neurospheres, 72 h exposure), 4.47 nM. For the same compound, the EC25 in data set [1] (read-out: EC25 (cell viability), D21 3D neurospheres, 72 h exposure) was 56.2 nM; in data set [1] (read-out: EC25 (cell viability), D28 3D neurospheres, 72 h exposure), 34.7 nM; in data set [1] (read-out: EC25 (cell viability), D42 3D neurospheres, 72 h exposure) it was 33.1 nM. Besides, the EC50 was 245 nM in data set [1] (read-out: EC50 (cell viability), D21 3D neurospheres, 72 h exposure); 182 nM in data set [1] (read-out: EC50 (cell viability), D28 3D neurospheres, 72 h exposure); 240 nM in data set [1] (read-out: EC50 (cell viability), D42 3D neurospheres, 72 h exposure). For the same compound, in the data set with LUHMES cells [2], the “Neurite outgrowth of LUHMES cells (in words)” value is “prominent neurite growth inhibition”. Further, the “Increase in the apoptotic cell number compared to the control” value in data set [4] was determined as 15%. In addition, in data set [5], the “In vitro cytotoxicity limit” value is 0.22 µM. Moreover, the “ER-stress inducing effect (XBP1 assay)” value in the data set on XBP1(S) is recorded as “no ER-stress inducing effect”. The “Probable lethal dose in human” value in the data set on humans was 300 to 500 mg/kg.

The values above are taken from article PMC7290365, “Human Induced Pluripotent Stem Cell-Derived 3D-Neurospheres Are Suitable for Neurotoxicity Screening” (Cells, 2020).
